# Data published in ChEMBL document CHEMBL3885861, “Open TG-GATES”.
# Species: Rattus norvegicus
# Experiment: Open TG-GATES - Regimen: Daily Repeat
# Format: toxicity, organism-based, Sprague-Dawley
# Design: regimen Daily Repeat, gender Male, age 6 weeks
# Conditions: in vivo, po, 0 mg/kg, route gavage, dose level Control; for APTT / Bas / Eos / Fbg / Hb / Ht / Lym / MCH / MCHC / MCV / Mono / Neu / PT / Plat / RBC / Ret / WBC: tissue Blood; for KIDNEY_L / KIDNEY_R / KIDNEY_TOTAL: tissue Kidney; for LIVER: tissue Liver; for A/G / ALP / ALT / AST / BUN / CRE / Ca / Cl / DBIL / GLC / IP / K / LDH / Na / PL / RALB / TBIL / TC / TG / TP / gamma-GTP: tissue Plasma
smiles,measurement,setting,value
Cc1cccc(Nc2ccccc2C(=O)O)c1C [MEFENAMIC ACID],TERMINAL_BW,"72 h, time 3 day",233.8 g
same,APTT,"72 h, time 3 day",19.9 s
same,Bas,"72 h, time 3 day",0%
same,Eos,"72 h, time 3 day",0.8%
same,Fbg,"72 h, time 3 day",223.4 mg/dL
same,Hb,"72 h, time 3 day",13.4 g/dL
same,Ht,"72 h, time 3 day",38.3%
same,Lym,"72 h, time 3 day",76%
same,MCH,"72 h, time 3 day",21.9 pg
same,MCHC,"72 h, time 3 day",35.1%
same,MCV,"72 h, time 3 day",62.4 fL
same,Mono,"72 h, time 3 day",2.6%
same,Neu,"72 h, time 3 day",18.2%
same,PT,"72 h, time 3 day",11.9 s
same,Plat,"72 h, time 3 day",118.8 x10_4/uL
same,RBC,"72 h, time 3 day",614 x10_4/ul
same,Ret,"72 h, time 3 day",5.7%
same,WBC,"72 h, time 3 day",105.7 x10_2/uL
same,KIDNEY_L,"72 h, time 3 day",1 g
same,KIDNEY_R,"72 h, time 3 day",1 g
same,KIDNEY_TOTAL,"72 h, time 3 day",2 g
same,LIVER,"72 h, time 3 day",11.2 g
same,A/G,"72 h, time 3 day",1.6
same,ALP,"72 h, time 3 day",1029.8 IU/L
same,ALT,"72 h, time 3 day",35.4 IU/L
same,AST,"72 h, time 3 day",64.2 IU/L
same,BUN,"72 h, time 3 day",14.4 mg/dL
same,CRE,"72 h, time 3 day",0.4 mg/dL
same,Ca,"72 h, time 3 day",11 mg/dL
same,Cl,"72 h, time 3 day",103.2 meq/L
same,DBIL,"72 h, time 3 day",0.088 mg/dL
same,GLC,"72 h, time 3 day",193.2 mg/dL
same,IP,"72 h, time 3 day",7.6 mg/dL
same,K,"72 h, time 3 day",4.2 meq/L
same,LDH,"72 h, time 3 day",173 IU/L
same,Na,"72 h, time 3 day",141 meq/L
same,PL,"72 h, time 3 day",143.6 mg/dL
same,RALB,"72 h, time 3 day",3.5 g/dL
same,TBIL,"72 h, time 3 day",0.1 mg/dL
same,TC,"72 h, time 3 day",70.6 mg/dL
same,TG,"72 h, time 3 day",87.4 mg/dL
same,TP,"72 h, time 3 day",5.6 g/dL
same,gamma-GTP,"72 h, time 3 day",1 IU/L
same,TERMINAL_BW,"[…], time 7 day",261.7 g
same,TERMINAL_BW,"[…], time 14 day",316.1 g
same,TERMINAL_BW,"[…], time 28 day",409.8 g
same,APTT,"[…], time 7 day",18.5 s
same,Bas,"[…], time 7 day",0%
same,Eos,"[…], time 7 day",0.8%
same,Fbg,"[…], time 7 day",219.2 mg/dL
same,Hb,"[…], time 7 day",13.8 g/dL
same,Ht,"[…], time 7 day",39.1%
same,Lym,"[…], time 7 day",81.4%
same,MCH,"[…], time 7 day",21.3 pg
same,MCHC,"[…], time 7 day",35.5%
same,MCV,"[…], time 7 day",60.1 fL
same,Mono,"[…], time 7 day",2.8%
same,Neu,"[…], time 7 day",13.4%
same,PT,"[…], time 7 day",11.7 s
same,Plat,"[…], time 7 day",121.6 x10_4/uL
same,RBC,"[…], time 7 day",650.6 x10_4/ul
same,Ret,"[…], time 7 day",4.7%
same,WBC,"[…], time 7 day",105 x10_2/uL
same,APTT,"[…], time 14 day",20.6 s
same,Bas,"[…], time 14 day",0%
same,Eos,"[…], time 14 day",1%
same,Fbg,"[…], time 14 day",228.8 mg/dL
same,Hb,"[…], time 14 day",14.3 g/dL
same,Ht,"[…], time 14 day",40.5%
same,Lym,"[…], time 14 day",76.4%
same,MCH,"[…], time 14 day",21.4 pg
same,MCHC,"[…], time 14 day",35.2%
same,MCV,"[…], time 14 day",60.8 fL
same,Mono,"[…], time 14 day",2.2%
same,Neu,"[…], time 14 day",18.6%
same,PT,"[…], time 14 day",12.1 s
same,Plat,"[…], time 14 day",108.8 x10_4/uL
same,RBC,"[…], time 14 day",667.4 x10_4/ul
same,Ret,"[…], time 14 day",4.2%
same,WBC,"[…], time 14 day",111.1 x10_2/uL
same,APTT,"[…], time 28 day",19.1 s
same,Bas,"[…], time 28 day",0%
same,Eos,"[…], time 28 day",1%
same,Fbg,"[…], time 28 day",249 mg/dL
same,Hb,"[…], time 28 day",15.3 g/dL
same,Ht,"[…], time 28 day",43.8%
same,Lym,"[…], time 28 day",81.4%
same,MCH,"[…], time 28 day",20.1 pg
same,MCHC,"[…], time 28 day",35%
same,MCV,"[…], time 28 day",57.4 fL
same,Mono,"[…], time 28 day",2%
same,Neu,"[…], time 28 day",14.4%
same,PT,"[…], time 28 day",11.8 s
same,Plat,"[…], time 28 day",111.8 x10_4/uL
same,RBC,"[…], time 28 day",763.4 x10_4/ul
same,Ret,"[…], time 28 day",2.7%
same,WBC,"[…], time 28 day",91.7 x10_2/uL
same,KIDNEY_L,"[…], time 7 day",1.1 g
same,KIDNEY_R,"[…], time 7 day",1.1 g
same,KIDNEY_TOTAL,"[…], time 7 day",2.2 g
same,KIDNEY_L,"[…], time 14 day",1.2 g
same,KIDNEY_R,"[…], time 14 day",1.2 g
same,KIDNEY_TOTAL,"[…], time 14 day",2.4 g
same,KIDNEY_L,"[…], time 28 day",1.4 g
same,KIDNEY_R,"[…], time 28 day",1.4 g
same,KIDNEY_TOTAL,"[…], time 28 day",2.9 g
same,LIVER,"[…], time 7 day",11.4 g
same,LIVER,"[…], time 14 day",13.7 g
same,LIVER,"[…], time 28 day",17.3 g
same,A/G,"[…], time 7 day",1.5
same,ALP,"[…], time 7 day",908 IU/L
same,ALT,"[…], time 7 day",38.8 IU/L
same,AST,"[…], time 7 day",69.4 IU/L
same,BUN,"[…], time 7 day",14.8 mg/dL
same,CRE,"[…], time 7 day",0.4 mg/dL
same,Ca,"[…], time 7 day",10.6 mg/dL
same,Cl,"[…], time 7 day",103.4 meq/L
same,DBIL,"[…], time 7 day",0.07 mg/dL
same,GLC,"[…], time 7 day",229.4 mg/dL
same,IP,"[…], time 7 day",6.9 mg/dL
same,K,"[…], time 7 day",3.8 meq/L
same,LDH,"[…], time 7 day",181 IU/L
same,Na,"[…], time 7 day",140.4 meq/L
same,PL,"[…], time 7 day",135.4 mg/dL
same,RALB,"[…], time 7 day",3.3 g/dL
same,TBIL,"[…], time 7 day",0.1 mg/dL
same,TC,"[…], time 7 day",71 mg/dL
same,TG,"[…], time 7 day",68.2 mg/dL
same,TP,"[…], time 7 day",5.6 g/dL
same,gamma-GTP,"[…], time 7 day",1 IU/L
same,A/G,"[…], time 14 day",1.5
same,ALP,"[…], time 14 day",880 IU/L
same,ALT,"[…], time 14 day",31 IU/L
same,AST,"[…], time 14 day",58.8 IU/L
same,BUN,"[…], time 14 day",16 mg/dL
same,CRE,"[…], time 14 day",0.5 mg/dL
same,Ca,"[…], time 14 day",10.5 mg/dL
same,Cl,"[…], time 14 day",103 meq/L
same,DBIL,"[…], time 14 day",0.092 mg/dL
same,GLC,"[…], time 14 day",233.6 mg/dL
same,IP,"[…], time 14 day",7.1 mg/dL
same,K,"[…], time 14 day",3.9 meq/L
same,LDH,"[…], time 14 day",154.4 IU/L
same,Na,"[…], time 14 day",140.6 meq/L
same,PL,"[…], time 14 day",142.8 mg/dL
same,RALB,"[…], time 14 day",3.4 g/dL
same,TBIL,"[…], time 14 day",0.2 mg/dL
same,TC,"[…], time 14 day",73.4 mg/dL
same,TG,"[…], time 14 day",101.4 mg/dL
same,TP,"[…], time 14 day",5.6 g/dL
same,gamma-GTP,"[…], time 14 day",0.8 IU/L
same,A/G,"[…], time 28 day",1.3
same,ALP,"[…], time 28 day",665 IU/L
same,ALT,"[…], time 28 day",33.4 IU/L
same,AST,"[…], time 28 day",56.6 IU/L
same,BUN,"[…], time 28 day",18.8 mg/dL
same,CRE,"[…], time 28 day",0.5 mg/dL
same,Ca,"[…], time 28 day",10.6 mg/dL
same,Cl,"[…], time 28 day",103.4 meq/L
same,DBIL,"[…], time 28 day",0.1 mg/dL
same,GLC,"[…], time 28 day",242.8 mg/dL
same,IP,"[…], time 28 day",7 mg/dL
same,K,"[…], time 28 day",3.8 meq/L
same,LDH,"[…], time 28 day",111.2 IU/L
same,Na,"[…], time 28 day",140.6 meq/L
same,PL,"[…], time 28 day",151.8 mg/dL
same,RALB,"[…], time 28 day",3.6 g/dL
same,TBIL,"[…], time 28 day",0.2 mg/dL
same,TC,"[…], time 28 day",74.2 mg/dL
same,TG,"[…], time 28 day",141.4 mg/dL
same,TP,"[…], time 28 day",6.2 g/dL
same,gamma-GTP,"[…], time 28 day",1.6 IU/L
